Results: PubChem BioAssay (NCI)
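Test compounds were applied to cells in 96-well plates for 48 hours at 5 doses. GI50 = concentration required for 50% inhibition of growth. TGI: concentration producing complete growth inhibition.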

Columns and labels:
Assay in all cases: growth of human tumour cells (NCI), 48 h
[1] = tested on: UO-31 renal
[2] = tested on: SK-MEL-2 melanoma
[3] = tested on: SK-MEL-5 melanoma
[4] = tested on: HCC-2998 colon
[5] = tested on: NCI-H460 lung
[6] = tested on: NCI-H23 lung
[7] = tested on: SNB-19 CNS
[8] = tested on: CCRF-CEM leukemia
[9] = tested on: HL-60(TB) leukemia
[10] = tested on: SK-OV-3 ovarian
[11] = tested on: SNB-75 CNS
[12] = tested on: PC-3 prostate
[13] = tested on: TK-10 renal
[14] = tested on: OVCAR-5 ovarian
[15] = tested on: RPMI-8226 leukemia
[16] = tested on: T-47D breast
[17] = tested on: SW-620 colon
[18] = tested on: ACHN renal
[19] = tested on: OVCAR-4 ovarian
[20] = tested on: HOP-62 NSCLC
[21] = tested on: HCT-116 colon
[22] = tested on: MOLT-4 leukemia
[23] = tested on: MALME-3M melanoma
[24] = tested on: NCI-H522 lung
[25] = tested on: DU-145 prostate
[26] = tested on: SF-268 CNS
[27] = tested on: HS 578T breast
[28] = tested on: NCI/ADR-RES ovarian
[29] = tested on: EKVX NSCLC
[30] = tested on: KM12 colon
[31] = tested on: RXF 393 renal
[32] = tested on: IGROV1 ovarian
[33] = tested on: BT-549 breast
[34] = tested on: SK-MEL-28 melanoma
[35] = tested on: U251 CNS
[36] = tested on: A549 NSCLC
[37] = tested on: SF-295 CNS
[38] = tested on: 786-0 renal
[39] = tested on: HOP-92 NSCLC
[40] = tested on: MDA-MB-231 breast
[41] = tested on: UACC-257 melanoma
[42] = tested on: LOX IMVI melanoma
[43] = tested on: COLO 205 colon
[44] = tested on: SF-539 CNS
[45] = tested on: OVCAR-8 ovarian
[46] = tested on: SR leukemia
[47] = tested on: MCF7 breast
[48] = tested on: A498 renal
[49] = tested on: SN12C renal
[50] = tested on: M14 melanoma
[51] = tested on: UACC-62 melanoma
[52] = tested on: HT29 colon
[53] = tested on: CAKI-1 renal
[54] = tested on: K-562 leukemia
[55] = tested on: NCI-H226 lung
[56] = tested on: HCT-15 colon
[57] = tested on: OVCAR-3 ovarian
[58] = tested on: MDA-MB-435

For COc1ccc(C(=O)c2cc3c(N)c(C(=O)Nc4cccc5ccccc45)sc3nc2C)cc1, the GI50 [1] was 422 nM, the TGI [1] was over 50000 nM and the GI50 [2] was over 50000 nM. It also gave a TGI [2] of over 50000 nM, a GI50 [3] of 193 nM and a TGI [3] of 1400 nM. It also gave a GI50 [4] of 424 nM, a TGI [4] of over 50000 nM and a GI50 [5] of 180 nM. For the same molecule, the TGI [5] was over 22500 nM, the GI50 [6] was 334 nM and the TGI [6] was over 50000 nM. It also gave a GI50 [7] of 208 nM, a TGI [7] of over 50000 nM and a GI50 [8] of 199 nM. The TGI [8] was over 50000 nM, the GI50 [9] was 150 nM and the TGI [9] was 503 nM. It also gave a GI50 [10] of 429 nM, a TGI [10] of over 50000 nM and a GI50 [11] of 137 nM. It also gave a TGI [11] of over 50000 nM, a GI50 [12] of 212 nM and a TGI [12] of over 50000 nM. For the same molecule, the GI50 [13] was over 50000 nM, the TGI [13] was over 50000 nM and the GI50 [14] was 285 nM. The TGI [14] was over 50000 nM, the GI50 [15] was 184 nM and the GI50 [16] was 355 nM. It also gave a TGI [16] of over 50000 nM, a GI50 [17] of 203 nM and a TGI [17] of over 50000 nM. The GI50 [18] was 364 nM, the TGI [18] was over 50000 nM and the GI50 [19] was 1150 nM. It also gave a TGI [19] of over 50000 nM, a GI50 [20] of 314 nM and a TGI [20] of over 50000 nM. For the same molecule, the GI50 [21] was 180 nM, the TGI [21] was over 18900 nM and the GI50 [22] was 308 nM. It also gave a TGI [22] of over 50000 nM, a GI50 [23] of 378 nM and a TGI [23] of over 50000 nM. It also gave a GI50 [24] of 226 nM, a TGI [24] of over 50000 nM and a GI50 [25] of 190 nM. For the same molecule, the TGI [25] was over 50000 nM, the GI50 [26] was 529 nM and the TGI [26] was over 50000 nM. The GI50 [27] was 198 nM, the TGI [27] was over 50000 nM and the GI50 [28] was 181 nM. For the same molecule, the TGI [28] was over 50000 nM, the GI50 [29] was 294 nM and the TGI [29] was over 50000 nM. It also gave a GI50 [30] of 215 nM, a TGI [30] of over 50000 nM and a GI50 [31] of 88 nM. For the same molecule, the TGI [31] was over 50000 nM, the GI50 [32] was 268 nM and the TGI [32] was over 50000 nM. The GI50 [33] was 379 nM, the TGI [33] was over 50000 nM and the GI50 [34] was over 50000 nM. For the same molecule, the TGI [34] was over 50000 nM, the GI50 [35] was 194 nM and the TGI [35] was over 50000 nM. For the same molecule, the GI50 [36] was 266 nM, the TGI [36] was over 50000 nM and the GI50 [37] was 172 nM. It also gave a TGI [37] of over 50000 nM, a GI50 [38] of 305 nM and a TGI [38] of over 50000 nM. For the same molecule, the GI50 [39] was 181 nM, the TGI [39] was over 13500 nM and the GI50 [40] was 271 nM. It also gave a TGI [40] of over 50000 nM, a GI50 [41] of over 50000 nM and a TGI [41] of over 50000 nM. The GI50 [42] was 287 nM, the TGI [42] was over 50000 nM and the GI50 [43] was 209 nM. It also gave a TGI [43] of over 13300 nM, a GI50 [44] of 126 nM and a GI50 [45] of 285 nM. It also gave a TGI [45] of over 50000 nM, a GI50 [46] of 161 nM and a TGI [46] of over 50000 nM. It also gave a GI50 [47] of 191 nM, a TGI [47] of over 50000 nM and a GI50 [48] of 119 nM. It also gave a TGI [48] of 764 nM, a GI50 [49] of 320 nM and a TGI [49] of over 50000 nM. The GI50 [50] was 166 nM, the TGI [50] was over 50000 nM and the GI50 [51] was 285 nM. It also gave a TGI [51] of over 50000 nM, a GI50 [52] of 183 nM and a TGI [52] of over 50000 nM. It also gave a GI50 [53] of 243 nM, a TGI [53] of over 50000 nM and a GI50 [54] of 163 nM. For the same molecule, the TGI [54] was over 50000 nM, the GI50 [55] was 332 nM and the TGI [55] was over 50000 nM. It also gave a GI50 [56] of 192 nM, a TGI [56] of over 50000 nM and a GI50 [57] of 156 nM. It also gave a TGI [57] of over 50000 nM.

Work on O=C(COc1ccc(/C=C2\Oc3ccccc3C2=O)cc1)Nc1nc2c(s1)CCCC2 yielded a GI50 [58] of 3980 nM, a TGI [58] of over 100000 nM and a GI50 [1] of 1870 nM. For the same molecule, the TGI [1] was over 49500 nM, the GI50 [2] was 4870 nM and the TGI [2] was 50200 nM. For the same molecule, the GI50 [3] was 17400 nM, the TGI [3] was over 57500 nM and the GI50 [4] was 16000 nM. The TGI [4] was 52300 nM, the GI50 [5] was 30300 nM and the TGI [5] was over 100000 nM. The GI50 [6] was 11900 nM, the TGI [6] was over 100000 nM and the GI50 [7] was 46900 nM. It also gave a TGI [7] of over 100000 nM, a GI50 [8] of 148 nM and a TGI [8] of 309 nM. It also gave a GI50 [9] of 424 nM, a TGI [9] of 1310 nM and a GI50 [10] of 50200 nM. The TGI [10] was over 100000 nM, the GI50 [11] was 221 nM and the TGI [11] was 609 nM. It also gave a GI50 [12] of 16800 nM, a TGI [12] of over 100000 nM and a GI50 [13] of 26200 nM. It also gave a TGI [13] of over 87600 nM, a GI50 [14] of 51200 nM and a TGI [14] of over 100000 nM. It also gave a GI50 [15] of 261 nM, a TGI [15] of 1120 nM and a GI50 [16] of 48400 nM. The TGI [16] was over 100000 nM, the GI50 [17] was 4070 nM and the TGI [17] was over 100000 nM. It also gave a GI50 [18] of 17400 nM, a TGI [18] of over 100000 nM and a GI50 [19] of 13100 nM. The TGI [19] was over 100000 nM, the GI50 [20] was 22500 nM and the TGI [20] was 97900 nM. It also gave a GI50 [21] of 9940 nM, a TGI [21] of over 100000 nM and a GI50 [23] of 1250 nM. It also gave a TGI [23] of over 78500 nM, a GI50 [24] of 165 nM and a TGI [24] of 406 nM. For the same molecule, the GI50 [25] was 417 nM, the TGI [25] was 27400 nM and the TGI [27] was 7780 nM. It also gave a GI50 [28] of 2190 nM, a TGI [28] of over 59100 nM and a GI50 [29] of 10700 nM. The TGI [29] was over 100000 nM, the GI50 [30] was 403 nM and the TGI [30] was 27500 nM. For the same molecule, the GI50 [32] was 16.4 nM, the TGI [32] was 36.1 nM and the GI50 [33] was 4440 nM. For the same molecule, the TGI [33] was over 49800 nM, the GI50 [34] was 27800 nM and the TGI [34] was over 68700 nM. The GI50 [35] was 2290 nM, the TGI [35] was over 100000 nM and the GI50 [36] was 3090 nM. It also gave a TGI [36] of 33000 nM, a GI50 [37] of 10100 nM and a TGI [37] of 43900 nM. For the same molecule, the GI50 [38] was 818 nM, the TGI [38] was 31700 nM and the GI50 [39] was 212 nM. For the same molecule, the TGI [39] was 2530 nM, the GI50 [40] was 709 nM and the TGI [40] was 6380 nM. For the same molecule, the GI50 [41] was 44.9 nM, the TGI [41] was 835 nM and the GI50 [42] was 17.5 nM. It also gave a TGI [42] of 31.7 nM, a GI50 [43] of over 73200 nM and a TGI [43] of over 100000 nM. It also gave a GI50 [44] of 622 nM, a TGI [44] of 1400 nM and a GI50 [46] of 590 nM. The TGI [46] was 2440 nM, the GI50 [47] was 15800 nM and the TGI [47] was over 100000 nM. For the same molecule, the GI50 [48] was 30600 nM, the TGI [48] was 98200 nM and the GI50 [49] was 4640 nM. The TGI [49] was over 92000 nM, the GI50 [50] was 16100 nM and the TGI [50] was over 100000 nM. The GI50 [51] was 23200 nM, the TGI [51] was over 100000 nM and the GI50 [52] was 3210 nM. For the same molecule, the TGI [52] was over 39400 nM, the GI50 [53] was 801 nM and the TGI [53] was 8280 nM. For the same molecule, the GI50 [54] was 18800 nM, the TGI [54] was over 100000 nM and the GI50 [55] was 8550 nM. It also gave a TGI [55] of 42000 nM, a GI50 [56] of 25100 nM and a TGI [56] of over 100000 nM. For the same molecule, the GI50 [57] was 1830 nM and the TGI [57] was 25500 nM.
